From the METLIN SMRT retention time set (Domingo-Almenara et al. 2019)

Assay: gradient 5% acetonitrile 3 min, to 50% in 2 min, to 85% in 15 min, held 3 min, 100 µL/min
Conditions: column: Zorbax Extend-C18 2.1 x 50 mm; eluents: water / acetonitrile, 0.1% formic acid
Procedure, shortened: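 The mobile phases were water and acetonitrile, each with 0.1% formic acid, pumped at 100 μL/min through a Zorbax Extend-C18 column (2.1 × 50 mm, 1.8 μm). Pure standards were injected as mixtures of ~100 molecules and detected by a quadrupole time-of-flight mass spectrometer in positive and negative ionization mode. Retention time came from computationally picked adduct peaks, each inspected by hand.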

| SMILES | RP-LC retention time |
| --- | --- |
| Cc1ccc(C(=O)OCC(=O)c2ccc([N+](=O)[O-])cc2)o1 | 688 s |
| CCCn1c(CCNC(=O)c2ccccc2)nc2cccnc21 | 633 s |
| CCOc1ccc(-c2noc(Cn3ccnc3)n2)cc1 | 635 s |
| COc1ccccc1/C=C(\C#N)C(=O)O | 801 s |
| COc1ccccc1NC(=O)N1CCC2(CC1)NC(=O)c1cccc(Cl)c1N2 | 754 s |
| CCNC(=O)N1CC(c2nc(-c3ccccc3)no2)C2(CCOCC2)C1 (stereo not given) | 728 s |
| CCc1ccc(C2=C(C)C(N3CCCN(C(=O)C(C)CC)CC3)=NS2(=O)=O)cc1 (stereo not given) | 888 s |
| CCOC(=O)N1CCC(NS(=O)(=O)C2CC2)CC1 | 632 s |
| Cc1ccc(-c2noc(C3CCCN3S(=O)(=O)c3ccc(C)c(Cl)c3)n2)cc1 (stereo not given) | 1290 s |
| CCn1nnc2ccc(-c3noc(CNC(=O)c4ccccc4)n3)cc21 | 773 s |
| COc1ccccc1CNC(=O)c1nc2cccnc2n(CC(C)C)c1=O | 976 s |
| COc1ccc(CN(Cc2cc(=O)n3cccc(C)c3n2)CC(C)C)cc1OC | 635 s |
| CCC1CN(S(=O)(=O)c2cc(-c3cc(C)no3)cs2)c2cc(Cl)ccc2O1 (stereo not given) | 1240 s |
| O=C(NCC1CCN(C(=O)Oc2ccccc2)CC1)c1ccsc1 | 739 s |
| Cc1ccccc1OCC(=O)NC(C)c1ccccc1 (stereo not given) | 903 s |
| Cc1cc(N2CCN(c3ccccn3)CC2)n2nc(-c3ccccc3)c(C)c2n1 | 614 s |
| Cc1ccc(CNC(=O)C2(C)CN(S(C)(=O)=O)CC(=O)N2Cc2ccccc2Cl)cc1 (stereo not given) | 901 s |
| COc1ccc(-c2nc(Cn3cnc4nc5c(cc4c3=O)CC(C)CC5)c(C)o2)cc1OC (stereo not given) | 870 s |
| Cc1ccc(S(=O)(=O)N2CCC3(CC2)NCCN=C3NCc2cccc(F)c2)c(C)c1 | 750 s |
| COc1ccc(NC(=O)N2CCCC(C)(C(=O)NCc3ccc(C)cc3)C2)cc1 (stereo not given) | 874 s |
| CCOc1ccc2nc(NC(=O)COc3nccc(C)n3)sc2c1 | 744 s |
| O=C(c1ccc(OCC2CCCN2C(=O)C2CC2)cc1)N1CCCC1 (stereo not given) | 714 s |
| Cc1nc(NCCNC(=O)c2cccs2)cc(N2CCCC2)n1 | 560 s |

| SMILES | RP-LC retention time |
| --- | --- |
| CSc1ccc(-c2noc(CN3C(=O)COc4ccccc43)n2)cc1 | 1110 s |
| Cc1ccc(NS(=O)(=O)c2cn(C(C)C)c3ncccc23)cc1F | 861 s |
| COc1ccc(NC(=O)Cn2c(=O)c3cc(-c4ccco4)nn3c3ncccc32)c(OC)c1 | 797 s |
| Cc1nn(C(C)C(=O)NCCCN2CCCC2)c(=O)c2nn(-c3ccccc3)c(C)c12 (stereo not given) | 614 s |
| CCOc1ccccc1NC(=O)N1CCC(n2cnc3ccccc3c2=O)CC1 | 801 s |
| CCn1c(=O)c(N2CCC(NC(=O)NC3CCCCC3)CC2)nc2ccccc21 | 831 s |
| O=S(=O)(NCCOc1cc(N2CCCC2)ncn1)c1ccc(Cl)s1 | 664 s |
| Cc1cccc(-c2ncccc2CNS(=O)(=O)c2cc(F)ccc2C)c1 | 774 s |
| COc1cccc(-c2nnc(Cc3nc(-c4cccc(F)c4)no3)o2)c1 | 991 s |
| O=C(Nc1cnc(-c2ccc(F)cc2)nc1)C1CC1 | 829 s |
| O=C(N1CCC(c2nc(-c3ccccc3)no2)C1)C1(c2ccccc2)CC1 (stereo not given) | 994 s |
| CCOc1ccc(CN(CCOC)Cc2cc(=O)n3cc(Cl)ccc3n2)cc1 | 677 s |
| O=C(C1CCN(c2cncnc2N2CCCCC2)CC1)N1CCOCC1 | 593 s |
| O=C1OCC/C1=C\c1ccc(O)cc1 | 711 s |
| O=C(NCc1ccccc1)C1CC(=O)N(c2ccc3c(c2)CCN3C(=O)C2CC2)C1 (stereo not given) | 727 s |
| COc1ccccc1-c1nc(Cc2noc(Cc3ccc(F)cc3)n2)c(C)o1 | 1000 s |
| Cc1ccc(CN2CCN(C3CCN(C(=O)Nc4ccc(C)c(F)c4)CC3)C(=O)C2=O)cc1 | 817 s |
| CCSc1nnc(NC(=O)c2cc(=O)c(OCc3ccc(F)cc3)co2)s1 | 791 s |
| CCCCS(=O)(=O)NC1CCCC(OC(=O)Nc2ccc(F)cc2)C1 (stereo not given) | 883 s |
| Fc1cccc(-c2noc(Cc3nnc(-c4ccccc4)o3)n2)c1 | 974 s |
| Cc1nc2cc(N3CCCC(C(=O)Nc4ccc(N5CCOCC5)cc4)C3)cnc2nc1C (stereo not given) | 658 s |
| Cc1cc(NC(=O)CSc2nc3ccccc3o2)sn1 | 726 s |
| CCCN1C(=O)c2c(C(=O)NCc3cccc(C)c3)ncn2CC1(C)C(=O)NC1CCCC1 (stereo not given) | 851 s |

| SMILES | RP-LC retention time |
| --- | --- |
| Cc1nc(-c2ccc(N3CCN(C(=O)c4nccc5ccccc45)CC3)nc2)sc1C | 867 s |
| Cc1nn(C)c2nc(OCC(=O)Nc3ccccc3Cl)cc(C(F)(F)F)c12 | 1130 s |
| Cc1ccc(NC(=O)N2CCCC2c2nc(-c3ccc(F)cc3F)no2)c(C)c1 (stereo not given) | 1050 s |
| CN(C)c1ccccc1CN1CCCN(Cc2ccccc2N(C)C)C1c1ccncc1 | 711 s |
| N#Cc1cnc2ccccc2c1N1CCC(C(=O)N2CCc3ccccc3C2)CC1 | 711 s |
| Cc1c(-c2ccc(-c3ccccc3F)cc2)nc2ccc(F)cc2c1C(=O)O | 967 s |
| Cc1ccc(-c2nnc(Cc3nc(-c4ccc(Br)cc4)no3)o2)cc1F | 1220 s |
| Cc1ccc(-c2nc(CN3CCOCC3)c(C)o2)cc1 | 640 s |
| COCCCNC(=O)c1ccc2c(c1)CCCN2S(=O)(=O)c1ccccc1 | 822 s |
| COc1ccc(-n2ccc(=O)c(-c3nc(-c4ccccc4F)no3)n2)cc1 | 822 s |
| CC(C)OCCCNC(=O)C1CCN(S(C)(=O)=O)c2cc(Cl)ccc2O1 (stereo not given) | 838 s |
| CCCn1c(=O)sc2cc(S(=O)(=O)N3CCC(C(=O)NCc4ccc(F)cc4)CC3)ccc21 | 934 s |
| Cc1nn(-c2nc(-c3ccc(F)cc3)cs2)c(C)c1CC(=O)Nc1ccc(Br)cc1 | 1240 s |
| COC(=O)c1c(NCc2ccccc2)c2cccc(Cl)c2[nH]c1=O | 786 s |
| O=c1c(S(=O)(=O)N2CCCCCC2)cccn1Cc1cccc(F)c1 | 946 s |
| CCOCCCNC(=O)C1c2c(n(C)c3ccccc23)SCC(=O)N1Cc1ccc(OC)cc1 (stereo not given) | 875 s |
| O=C(O)CC1CCCN(c2cn[nH]c(=O)c2)C1 (stereo not given) | 570 s |
| Cc1cc2nn(CC(=O)Nc3cccc(C(C)C)c3)c(=O)n2c(-c2ccccc2)n1 | 955 s |
| CC(=O)Nc1ccc(-c2nc(-c3cccc(-c4ccnn4C)c3)no2)cc1 | 1140 s |
| CS(=O)(=O)N1CCCc2cc(C(=O)NCc3ccco3)ccc21 | 742 s |
| O=C(NCCC1CCN(C(=O)Nc2ccc(F)cc2F)CC1)C1CCC1 | 720 s |
| CC(C)n1cc(C2=CCN(S(=O)(=O)c3ccccc3)CC2)c2cccnc21 | 702 s |
| Cc1ccc(CNC(=O)c2c(C)sc3ccn(Cc4ccc(F)cc4)c(=O)c23)o1 | 980 s |

| SMILES | RP-LC retention time |
| --- | --- |
| Cc1ccc(-c2nnc(N3CCC(C(=O)NCCN4CCCCC4C)CC3)o2)cc1 (stereo not given) | 624 s |
| CCn1c(=O)sc2cc(S(=O)(=O)N3CCC(C(=O)Nc4ccc(F)cc4C)CC3)ccc21 | 911 s |
| O=C(N[C@H]1C[C@@H]2C[C@H]1N(S(=O)(=O)c1cc(F)cc(F)c1)C2)c1cccs1 | 720 s |
| Cc1oc2ccn(Cc3ccc(F)cc3)c(=O)c2c1C(=O)NCC1CCCO1 (stereo not given) | 870 s |
| O=S(=O)(c1ccc(-c2cnc(C3CCCC3)o2)s1)N1CCN(c2ccccn2)CC1 | 842 s |
| COc1cccc(-c2nc(C3CCN(S(=O)(=O)c4ccc(F)cc4)CC3)no2)c1 | 1100 s |
| COc1cccc(C2Cn3nnc(-c4nc(-c5ccc(OCc6ccccc6)cc5)no4)c3CO2)c1 (stereo not given) | 1340 s |
| CCc1c(CN2CCN(c3ccccn3)CC2)csc1C | 596 s |
| Cc1c(C(=O)N2CCCC2)cc(-c2ccc(F)cc2)n1C | 889 s |
| CC(C)c1cccc(NC(=O)C2CCN(C(=O)c3ncn4c3COC(c3ccc(F)cc3)C4)CC2)c1 (stereo not given) | 931 s |
| CC(C)NC(=O)c1ccc(-c2nc3cc(NS(=O)(=O)c4cc(F)cc(F)c4)ccc3n2C)cc1 | 718 s |
| CCOc1ccc(-c2[nH]ncc2CNS(=O)(=O)Cc2ccc(C)cc2)cc1 | 853 s |
| CCOc1ccc(-c2ccc(=O)n(Cc3nc(-c4ccccn4)no3)n2)cc1 | 813 s |
| O=C(Nc1cccc(F)c1)N1CCCC1c1nc(-c2ccccc2)no1 (stereo not given) | 964 s |
| COC(=O)c1ccc(C(=O)N(Cc2ccccn2)Cc2ccco2)cc1 | 650 s |
| CCOc1ccc(C(=O)NCC(=O)Nc2nc3ccccc3[nH]2)cc1OCC | 640 s |
| Cc1ccc(Cc2c(C)nc3c(C(=O)NCCCN4CCOCC4)cnn3c2C)cc1 | 684 s |
| O=C(c1ccco1)N1CCCC(OCc2nc(C3CC3)no2)C1 (stereo not given) | 732 s |
| COc1ccc(CNC(=O)NC2CCN(c3ccc(C)c(C)c3)C2=O)cc1 (stereo not given) | 793 s |
| CCN1CCN(C(=O)c2sc(-c3cn(C(C)C)c4ncccc34)nc2C)CC1 | 612 s |
| O=C(Cn1c(C2CCCO2)nc2ccccc21)NCc1cccs1 (stereo not given) | 615 s |
